Reference: patent US6867305B2, “Synthesis of epothilones, intermediates thereto and analogues thereof” (Sloan-Kettering Institute for Cancer Research, priority 1996, dated 2005)
Like-named read-outs stand apart in the source and are kept apart here.

Experiments:
[1] = tested on: HCT-116 colon carcinoma xenograft; assay: Human tumor xenograft in nude mice; format: in vivo; conditions: for Therapeutic Effect Rank Order: HCT-116, i.v. infusion
Text: Therapeutic efficacy of cancer chemotherapeutic agents varies with various factors including the tumor models used and the dosage of drug and schedules and routes of administration. […] In the present studies, we intended to compare the therapeutic effects of drugs near their maximal tolerated doses by measuring the extent of body-weight decreases and/or lethality.
(§1) Depending on the tumor type, treatment started on day 10 to day 21 when subcutaneous tumor size reached 35-200 mm^3, except otherwise indicated. Tumor size and body-weight were recorded every other day (Q2D) and, for humane reasons, the animals were sacrificed when tumor size reached ≧10% of body-weight. Each group, including untreated control, consisted of 3-5 animals unless otherwise indicated.
(§2) Athymic nude mice bearing the nu/nu gene were used for all human tumor xenografts. Outbred, Swiss-background mice were obtained from Charles River Laboratories. Male mice 8 weeks or older weighing 22 g and up were used for most experiments. The drug was administered via the tail vein for 6 hr.-i.v. infusion. Each individual mouse was confined in a perforated Falcon polypropylene tube restrainer for drug administration. Tumor volume was assessed by measuring length×width×height (or width) using a caliper. The programmable Harvard PHD2000 syringe pump (Harvard Apparatus) with multi-track was used for i.v. infusion. […] All animal studies were conducted in accordance with the guidelines of the National Institutes of Health “Guide for the Care and Use of Animals” and the protocol approved by the Memorial Sloan-Kettering Cancer Center's Institutional Animal Care and Use Committee. In keeping with the policy of this committee for the humane treatment of tumor-bearing animals, mice were euthanized when tumors reached ≧10% of their total body weight.
(§3) Human tumor cells (5×10^6) or tumor tissue (30-50 mg) were implanted s.c. flank in nu/nu mice (Charles River Laboratories, Wilmington, Mass.). When tumor grew to a specified size, treatment was started by every-other day×5 with 6 hr i.v.-infusion, unless otherwise indicated. Tumor volume was measured with calipers in three dimensions (length×width×height or width). Body-weight changes and lethality were monitored every other day.

[2] = Body-weight decrease and lethality in tumor-bearing nude mice
Experimental: as §1
Essential features of useful cancer therapeutic agent involve not only high efficiency against cancer but also low toxicity toward the host, especially toward vital organs or functions [i.e. wide therapeutic window or high therapeutic index (LD50/ED50)].
as §3

UL-3-B/Taxol [3] = assay: cells; conditions: Homo sapiens
[4] = tested on: CCRF-CEM human T-cell acute lymphoblastic leukemia cells; assay: Tumor cell growth inhibition in vitro (XTT, 72 h); format: cell-based; conditions: CCRF-CEM; for IC50: 72 h incubation
Experimental: (§4) The fresh medium containing each drug was replenished every 7-14 days. […] In each case ,the drug-exposed cells were resuspended in fresh media for a minimum of 4 days before the experiments for the cell-growth inhibition was carried out.
(§5) The cells were cultured at an initial density of 2-5×10^4 cells per ml. They were maintained in a 5% CO2-humidified atmosphere at 37° C. in RPMI mediun 1640 (GIBCO/BRL) containing penicillin (100 units/ml), streptomycin (100 μg/ml) (GIBCO/BRL), and 5% heat-inactivated fetal bovine serum. For solid tumor cells growing in a monolayer (such as MCF-7/Adr), cytotoxicitiy of the drug was determined in 96-well microtiter plates by using the sulforhodamine B method as described by Skehan et al (23) for measuring the cellular protein content. For cells that were grown in suspension (such as CCRF-CEM and its sublines), cytotoxicitiy was measured by using the 2,-3-bis(2-methoxy-4-nitro-5-sulfophenyl)-5carboxanilide)-2H terazodium hydroxide (XTT)-microculture tetrazonium method (24) in duplicate in 96-well microtiter plates. For both methods, the absorbance of each well was measured with a microplate reader (EL-340, Bio-Tek, Burlington, Vt.). Each run entailed six or seven concentrations of the tested drugs. Dose-effect relationship data were analyzed with the median-effect plot (25) by using a previously described computer program (26).

[5] = tested on: HL-60 human promyelocytic leukemia; assay: Tumor cell growth inhibition in vitro; format: cell-based
Experimental: as §5, with “They were maintained in a 5% CO2-humidified atmosphere at 37° C. in RPMI mediun 1640 (GIBCO/BRL) containing penicillin (100 units/ml), streptomycin (100 μg/ml) (GIBCO/BRL), and 5% heat-inactivated fetal bovine serum.” left out

[6] = tested on: HT-29 human colon adenocarcinoma; assay: Tumor cell growth inhibition in vitro; format: cell-based
Experimental: as §5, with “They were maintained in a 5% CO2-humidified atmosphere at 37° C. in RPMI mediun 1640 (GIBCO/BRL) containing penicillin (100 units/ml), streptomycin (100 μg/ml) (GIBCO/BRL), and 5% heat-inactivated fetal bovine serum.” left out

[7] = tested on: MCF-7 human mammary adenocarcinoma; assay: Tumor cell growth inhibition in vitro; format: cell-based
Experimental: as §5, with “They were maintained in a 5% CO2-humidified atmosphere at 37° C. in RPMI mediun 1640 (GIBCO/BRL) containing penicillin (100 units/ml), streptomycin (100 μg/ml) (GIBCO/BRL), and 5% heat-inactivated fetal bovine serum.” left out

[8] = tested on: PC-3 human prostate adenocarcinoma; assay: Tumor cell growth inhibition in vitro; format: cell-based
Experimental: as §5, with “They were maintained in a 5% CO2-humidified atmosphere at 37° C. in RPMI mediun 1640 (GIBCO/BRL) containing penicillin (100 units/ml), streptomycin (100 μg/ml) (GIBCO/BRL), and 5% heat-inactivated fetal bovine serum.” left out

[9] = tested on: SK-OV-3 human ovary adenocarcinoma; assay: Tumor cell growth inhibition in vitro; format: cell-based
Experimental: as §5, with “They were maintained in a 5% CO2-humidified atmosphere at 37° C. in RPMI mediun 1640 (GIBCO/BRL) containing penicillin (100 units/ml), streptomycin (100 μg/ml) (GIBCO/BRL), and 5% heat-inactivated fetal bovine serum.” left out

[10] = tested on: MX-1 human mammary carcinoma; assay: Tumor cell growth inhibition in vitro; format: cell-based; conditions: Homo sapiens, MX1
Experimental: as §5, with “They were maintained in a 5% CO2-humidified atmosphere at 37° C. in RPMI mediun 1640 (GIBCO/BRL) containing penicillin (100 units/ml), streptomycin (100 μg/ml) (GIBCO/BRL), and 5% heat-inactivated fetal bovine serum.” left out

[11] = tested on: K562 human chronic myeloblastic leukemia; assay: Tumor cell growth inhibition in vitro; format: cell-based
Experimental: as §5, with “They were maintained in a 5% CO2-humidified atmosphere at 37° C. in RPMI mediun 1640 (GIBCO/BRL) containing penicillin (100 units/ml), streptomycin (100 μg/ml) (GIBCO/BRL), and 5% heat-inactivated fetal bovine serum.” left out

[12] = tested on: UL-3-C ovarian adenocarcinoma; assay: Tumor cell growth inhibition in vitro; format: cell-based, human
Experimental: as §4, §5

DC-3F/ADX = assay: Tumor cell growth inhibition in vitro; format: cell-based, hamster; conditions: for IC50: DC-3F/ADX; for cross-resistance (fold of resistance vs parent cell line): DC-3F/ADX vs DC-3F
Experimental: as §4, §5

UL-3-B/Taxol [13] = tested on: UL-3-B/Taxol
[14] = tested on: HL-60 promyelocytic leukemia xenograft; assay: Human tumor xenograft in nude mice; format: in vivo
Experimental: as §1, §2, §3

[15] = tested on: UL3-C ovary adenocarcinoma xenograft; assay: Human tumor xenograft in nude mice; format: in vivo
Experimental: as §1, §2, §3

[16] = tested on: DC-3F hamster lung fibroblasts; assay: Tumor cell growth inhibition in vitro; format: cell-based
Experimental: as §4, §5

[17] = Homo sapiens, MCF7, MCF-7, read-out: IC50
[18] = Homo sapiens, K562, K562, read-out: IC50
[19] = HCT-116, dEpoB 30 mg/kg, Taxol 20 mg/kg, Q2Dx51x3, 6-hr i.v. infusion
[20] = HL-60, dEpoB 30 mg/kg, Taxol 20 mg/kg, Q2Dx5, 6-hr i.v. infusion
[21] = dEpoB 30 mg/kg, Taxol 20 mg/kg, Q2Dx5, 6-hr i.v. infusion

Compound	Therapeutic Effect Rank Order [1]	drop in body-weight during treatment without causing lethality ([2]; nude mice)	IC50 (UL-3-B/Taxol [3])	IC50 [4]	IC50 [5]	IC50 [6]	IC50 [7, 17]	IC50 ([7]; MCF-7)	IC50 [8]	IC50 [9]	IC50 [10]	IC50 [11, 18]	IC50 ([12]; Homo sapiens, read-out: IC50)	Tumor Disappearance [1, 19]	Tumor Disappearance [14, 20]	Tumor Disappearance [15, 21]	other results
C/C1=C/C[C@@H](/C(C)=C/c2csc(CO)n2)OC(=O)C[C@H](O)C(C)(C)C(=O)[C@H](C)[C@@H](O)[C@@H](C)CCC1 [dEpoF, 12,13-Desoxyepothilone F]	Taxol, CPT-11≈dEpoB, dEpoF	23-29%	6.7 nM	2.7 nM	0.7 nM	1.4 nM	6.9 nM	10 nM	11.9 nM	5.1 nM	4.2 nM	2.1 nM	4.8 nM	–	–	–	potency relative to dEpoB (times less potent) [4]: slightly less potent than dEpoB
CC(=O)O[C@H]1C(=O)[C@@]2(C)[C@H]([C@H](OC(=O)c3ccccc3)[C@]3(O)C[C@H](OC(=O)[C@H](O)[C@@H](NC(=O)c4ccccc4)c4ccccc4)C(C)=C1C3(C)C)[C@]1(OC(C)=O)CO[C@@H]1C[C@@H]2O [Taxol, paclitaxel, reference compound]	–	–	–	1.2 nM	1.1 nM	1.6 nM	2.4 nM	–	28 nM	3.8 nM	39.4 nM	–	–	3/3	4/4	0/3	body-weight decrease without lethality at the doses used ([2]; mouse, in vivo): 10-20%; IC50 (DC-3F/ADX): 583 nM; IC50 (DC-3F/ADX; listed as Paclitaxel): 20200 nM; IC50 (UL-3-B/Taxol [13]; UL-3-B/Taxol): 13.4 nM; IC50 ([11]; Homo sapiens, K562, read-out: IC50): 2.9 nM; IC50 [12]: 1.5 nM; IC50 ([12]; Homo sapiens): 1.6 nM
C/C(=C\c1csc(C)n1)C1C[C@@H]2O[C@]2(C)CCC[C@H](C)[C@H](O)[C@@H](C)C(=O)C(C)(C)C(O)CC(=O)N1 (stereo partly drawn) [aza-EpoB, aza-epothilone B]	–	–	15 nM	–	2.5 nM	3.2 nM	4.3 nM	–	42 nM	16 nM	2.4 nM	–	1.2 nM	–	–	–	IC50 ([16]; Mesocricetus auratus, DC3F, read-out: IC50): 8.7 nM; drop in body-weight that led to lethality ([2]; nude mice): 14-20%; cross-resistance (fold of resistance vs parent cell line) (DC-3F/ADX): 33.1 x; cross-resistance (fold of resistance vs parent cell line) (DC-3F/ADX; listed as 15-aza-EpoB): 274 x; IC50 (DC-3F/ADX; listed as 15-aza-EpoB, read-out: IC50): 2380 nM; IC50 (DC-3F/ADX; read-out: IC50): 288 nM; IC50 ([4]; Homo sapiens, read-out: IC50): 2.1 nM; cross-resistance (fold of resistance vs parent cell line) (UL-3-B/Taxol [13]): 0.015[12.5] x; IC50 ([11]; K562, listed as 15-aza-EpoB, read-out: IC50): 60 nM; IC50 ([11]; K562, read-out: IC50): 4 nM
C/C1=C/C[C@@H](/C(C)=C/c2csc(C)n2)OC(=O)C[C@H](O)C(C)(C)C(=O)[C@H](C)[C@@H](O)[C@@H](C)CCC1 [dEpoB, 12,13-desoxyepothilone B]	Taxol, CPT-11≈dEpoB, dEpoF	23-29%	7 nM	7.4 nM	3.1 nM	4.8 nM	4 nM	3.8 nM	20.9 nM	3.5 nM	22.1 nM	3.6 nM	2.1 nM	1/2	2/3	0/3	IC50 [16]: 2.5 nM; IC50 ([16]; Mesocricetus auratus, DC3F): 1.9 nM; Lowest Average Tumor Size (T/C) [1, 19]: 0; body-weight decrease without lethality at the doses used ([2]; dEpoB 30-40 mg/kg, paclitaxel 15-24 mg/kg, 6-hr i.v. infusion): 10-20%; IC50 ([4]; Homo sapiens, 72 h): 9.5 nM; Therapeutic Effect Rank Order ([14]; HL-60, i.v. infusion): Taxol≧ dEpoB; Lowest Average Tumor Size (T/C) [14, 20]: 0.01; Lowest Average Tumor Size (T/C) [15, 21]: 0.03; Therapeutic Effect Rank Order ([15]; i.v. infusion): dEpoB≧ Taxol; IC50 ([11]; K562): 6.9 nM
